Test results: the NIST ThermoML archive (doi:10.1016/j.jct.2004.11.016)
± gives the expanded uncertainty stated by the source.

Legend:
[1] = Liquid; for mass density: 101.3 kPa; for viscosity: 101 kPa
[2] = xn = mol fraction of the nth substance listed; conditions: Liquid, x2 = 0; for viscosity: 101 kPa; for mass density: 101.3 kPa

SMILES	viscosity ([1]; 313.15 K) [mPa·s]	viscosity ([1]; 323.15 K) [mPa·s]	mass density ([1]; 323.15 K) [kg/m3]	mass density ([1]; 328.15 K) [kg/m3]	viscosity ([1]; 333.15 K) [mPa·s]	mass density ([1]; 333.15 K) [kg/m3]	mass density ([1]; 338.15 K) [kg/m3]	viscosity ([1]; 343.15 K) [mPa·s]	mass density ([1]; 343.15 K) [kg/m3]	mass density ([1]; 348.15 K) [kg/m3]	viscosity ([1]; 353.15 K) [mPa·s]	mass density ([1]; 353.15 K) [kg/m3]	mass density ([1]; 358.15 K) [kg/m3]	mass density ([1]; 363.15 K) [kg/m3]	other results
CN(C)CCO [2-(N,N-dimethylamino)ethanol]	2.238 ± 0.033	1.756 ± 0.026	861.902 ± 1.4	857.46 ± 1.4	1.413 ± 0.021	852.965 ± 1.4	848.423 ± 1.5	1.156 ± 0.017	843.844 ± 1.5	839.205 ± 1.5	0.963 ± 0.015	834.521 ± 1.5	829.779 ± 1.6	824.969 ± 1.6	mass density ([1]; 293.15 K): 887.816 ± 1.2 kg/m3; mass density ([1]; 298.15 K): 883.578 ± 1.2 kg/m3; mass density ([1]; 303.15 K): 879.315 ± 1.3 kg/m3; mass density ([1]; 308.15 K): 875.017 ± 1.3 kg/m3; mass density ([1]; 313.15 K): 870.686 ± 1.3 kg/m3; mass density ([1]; 318.15 K): 866.316 ± 1.3 kg/m3
O [water]	0.651 ± 0.01	0.544 ± 0.009	988.03 ± 0.57	985.688 ± 0.59	0.463 ± 0.008	983.191 ± 0.6	980.546 ± 0.62	0.396 ± 0.007	977.759 ± 0.64	974.838 ± 0.66	0.348 ± 0.006	971.785 ± 0.68	968.606 ± 0.7	965.305 ± 0.72	
O [water] + CN(C)CCO															viscosity ([2]; 313.15 K): 0.651 ± 0.01 mPa·s; viscosity ([2]; 323.15 K): 0.544 ± 0.009 mPa·s; mass density ([2]; 323.15 K): 988.03 ± 0.57 kg/m3; mass density ([2]; 328.15 K): 985.688 ± 0.59 kg/m3; viscosity ([2]; 333.15 K): 0.463 ± 0.008 mPa·s; mass density ([2]; 333.15 K): 983.191 ± 0.6 kg/m3; mass density ([2]; 338.15 K): 980.546 ± 0.62 kg/m3; viscosity ([2]; 343.15 K): 0.396 ± 0.007 mPa·s; mass density ([2]; 343.15 K): 977.759 ± 0.64 kg/m3; mass density ([2]; 348.15 K): 974.838 ± 0.66 kg/m3; viscosity ([2]; 353.15 K): 0.348 ± 0.006 mPa·s; mass density ([2]; 353.15 K): 971.785 ± 0.68 kg/m3; mass density ([2]; 358.15 K): 968.606 ± 0.7 kg/m3; mass density ([2]; 363.15 K): 965.305 ± 0.72 kg/m3
